Measured values from PMC4332545 (ChemMedChem, 2009).

Experiments:
[1] = tested on: Frings mouse model of epilepsy; conditions: in vivo; cited from earlier work
[2] = tested on: 6 Hz (32 mA) corneal stimulation seizures in CF-1 mice; assay: 6 Hz partial psychomotor seizure model; type: in vivo; conditions: mouse 6 Hz, 30 min after dosing

Compound | Anticonvulsant activity in the Frings mouse model [1] | Anticonvulsant Assay, icv ED50 [2] [nmol]
ZSEEGGSNATKKPYIL [Contulakin-G] | potent anticonvulsant activity | 
CC[C@H](C)[C@H](NC(=O)[C@H](Cc1ccc(O)cc1)NC(=O)[C@@H]1CCCN1C(=O)[C@H](CCCNC(=N)N)NC(=O)[C@@H](N)CCCNC(=N)N)C(=O)N[C@@H](CC(C)C)C(=O)O [NT(8–13), H-RRPYIL-OH] |  | 0.0011
